Measured values published in publication PMC9234961 (Journal of Medicinal Chemistry, 2022).

Key:
kinases (468) [1] = target: kinases (468) (Homo sapiens, UniProt Q9P2K8, S808G); settings: GCN2(Kin.Dom.2,S808G) (EIF2AK4); 1000 nM
kinases (468) [2] = target: kinases (468) (Plasmodium falciparum, UniProt P62344); settings: PFCDPK1(P.falciparum) (CDPK1); 1000 nM
kinases (468) [3] = target: kinases (468) (Homo sapiens, UniProt P08631); settings: HCK; 1000 nM
kinases (468) [4] = target: kinases (468) (Homo sapiens, UniProt O96017); settings: CHEK2; 1000 nM
kinases (468) [5] = target: kinases (468) (Homo sapiens, UniProt Q9HBH9); settings: MKNK2; 1000 nM
kinases (468) [6] = target: kinases (468) (Homo sapiens, UniProt P20794); settings: MAK; 1000 nM
kinases (468) [7] = target: kinases (468) (Homo sapiens, UniProt Q9NYL2); settings: kinase ZAK (Entrez ZAK); compound concentration 1000 nM
kinases (468) [8] = target: kinases (468) (Homo sapiens, UniProt P09619); settings: PDGFRB; 1000 nM
kinases (468) [9] = target: kinases (468) (Homo sapiens, UniProt P25098); settings: GRK2 (ADRBK1); 1000 nM
kinases (468) [10] = target: kinases (468) (Homo sapiens, UniProt Q13153); settings: PAK1; 1000 nM
kinases (468) [11] = target: kinases (468) (Homo sapiens, UniProt Q9NY57); settings: kinase YANK2 (Entrez STK32B); compound concentration 1000 nM
kinases (468) [12] = target: kinases (468) (Homo sapiens, UniProt P07949, V804L); settings: kinase RET(V804L) (Entrez RET); compound concentration 1000 nM
kinases (468) [13] = target: kinases (468) (Homo sapiens, UniProt P42336, E545K); settings: PIK3CA(E545K); 1000 nM
Sequence of kinases (468) (Homo sapiens, UniProt P42336, E545K) (P42336 whole entry E545K): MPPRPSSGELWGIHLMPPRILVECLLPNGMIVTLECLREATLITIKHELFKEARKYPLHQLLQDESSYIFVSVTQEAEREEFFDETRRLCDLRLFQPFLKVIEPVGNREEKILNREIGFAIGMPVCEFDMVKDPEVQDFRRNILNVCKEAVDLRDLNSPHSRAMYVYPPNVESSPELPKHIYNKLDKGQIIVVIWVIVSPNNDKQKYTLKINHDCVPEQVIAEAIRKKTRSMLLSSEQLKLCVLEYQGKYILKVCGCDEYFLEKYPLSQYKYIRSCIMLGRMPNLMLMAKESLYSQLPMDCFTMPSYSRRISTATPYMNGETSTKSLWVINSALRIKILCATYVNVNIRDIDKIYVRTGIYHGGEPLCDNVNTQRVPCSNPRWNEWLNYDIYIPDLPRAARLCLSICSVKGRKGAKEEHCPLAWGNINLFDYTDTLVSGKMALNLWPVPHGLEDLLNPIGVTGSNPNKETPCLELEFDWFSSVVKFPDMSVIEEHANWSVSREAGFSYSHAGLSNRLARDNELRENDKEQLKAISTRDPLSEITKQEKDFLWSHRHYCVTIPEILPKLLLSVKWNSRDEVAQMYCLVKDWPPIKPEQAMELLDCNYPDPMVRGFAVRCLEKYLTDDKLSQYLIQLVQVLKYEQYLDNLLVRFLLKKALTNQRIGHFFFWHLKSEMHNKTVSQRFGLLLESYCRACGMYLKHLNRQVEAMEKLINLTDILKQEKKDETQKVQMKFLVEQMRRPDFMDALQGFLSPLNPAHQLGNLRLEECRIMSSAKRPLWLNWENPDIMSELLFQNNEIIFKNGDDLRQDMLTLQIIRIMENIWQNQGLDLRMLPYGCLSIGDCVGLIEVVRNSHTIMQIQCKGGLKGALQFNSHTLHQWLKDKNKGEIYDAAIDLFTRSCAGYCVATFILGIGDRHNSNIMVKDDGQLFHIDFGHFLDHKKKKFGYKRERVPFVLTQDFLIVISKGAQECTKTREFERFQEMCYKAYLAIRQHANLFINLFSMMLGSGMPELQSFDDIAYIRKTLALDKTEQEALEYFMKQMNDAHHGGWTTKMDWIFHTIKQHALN

kinases (468) [14] = target: kinases (468) (Homo sapiens, UniProt P37173); settings: kinase TGFBR2 (Entrez TGFBR2); compound concentration 1000 nM
Sequence of kinases (468) (Homo sapiens, UniProt P37173) (P37173 23-567): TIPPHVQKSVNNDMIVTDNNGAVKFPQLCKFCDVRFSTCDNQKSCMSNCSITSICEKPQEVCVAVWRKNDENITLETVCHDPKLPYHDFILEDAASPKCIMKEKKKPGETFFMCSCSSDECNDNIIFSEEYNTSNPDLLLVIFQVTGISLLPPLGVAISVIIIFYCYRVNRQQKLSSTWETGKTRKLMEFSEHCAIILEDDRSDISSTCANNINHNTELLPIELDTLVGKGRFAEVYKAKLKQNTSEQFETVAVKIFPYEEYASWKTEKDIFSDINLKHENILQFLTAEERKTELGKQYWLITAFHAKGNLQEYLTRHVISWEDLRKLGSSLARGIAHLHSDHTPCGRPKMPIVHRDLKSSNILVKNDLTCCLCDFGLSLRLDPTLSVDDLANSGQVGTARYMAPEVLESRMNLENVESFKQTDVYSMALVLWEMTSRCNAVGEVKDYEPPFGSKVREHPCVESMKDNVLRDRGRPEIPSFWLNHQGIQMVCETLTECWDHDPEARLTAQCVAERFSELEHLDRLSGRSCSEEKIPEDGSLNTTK

kinases (468) [15] = target: kinases (468) (Homo sapiens, UniProt P12931); settings: kinase SRC (Entrez SRC); compound concentration 1000 nM
kinases (468) [16] = target: kinases (468) (Homo sapiens, UniProt P07949, M918T); settings: kinase RET(M918T) (Entrez RET); compound concentration 1000 nM
kinases (468) [17] = target: kinases (468) (Homo sapiens, UniProt P10721, D816H); settings: KIT(D816H); 1000 nM
Sequence of kinases (468) (Homo sapiens, UniProt P10721, D816H) (P10721 26-976 D816H): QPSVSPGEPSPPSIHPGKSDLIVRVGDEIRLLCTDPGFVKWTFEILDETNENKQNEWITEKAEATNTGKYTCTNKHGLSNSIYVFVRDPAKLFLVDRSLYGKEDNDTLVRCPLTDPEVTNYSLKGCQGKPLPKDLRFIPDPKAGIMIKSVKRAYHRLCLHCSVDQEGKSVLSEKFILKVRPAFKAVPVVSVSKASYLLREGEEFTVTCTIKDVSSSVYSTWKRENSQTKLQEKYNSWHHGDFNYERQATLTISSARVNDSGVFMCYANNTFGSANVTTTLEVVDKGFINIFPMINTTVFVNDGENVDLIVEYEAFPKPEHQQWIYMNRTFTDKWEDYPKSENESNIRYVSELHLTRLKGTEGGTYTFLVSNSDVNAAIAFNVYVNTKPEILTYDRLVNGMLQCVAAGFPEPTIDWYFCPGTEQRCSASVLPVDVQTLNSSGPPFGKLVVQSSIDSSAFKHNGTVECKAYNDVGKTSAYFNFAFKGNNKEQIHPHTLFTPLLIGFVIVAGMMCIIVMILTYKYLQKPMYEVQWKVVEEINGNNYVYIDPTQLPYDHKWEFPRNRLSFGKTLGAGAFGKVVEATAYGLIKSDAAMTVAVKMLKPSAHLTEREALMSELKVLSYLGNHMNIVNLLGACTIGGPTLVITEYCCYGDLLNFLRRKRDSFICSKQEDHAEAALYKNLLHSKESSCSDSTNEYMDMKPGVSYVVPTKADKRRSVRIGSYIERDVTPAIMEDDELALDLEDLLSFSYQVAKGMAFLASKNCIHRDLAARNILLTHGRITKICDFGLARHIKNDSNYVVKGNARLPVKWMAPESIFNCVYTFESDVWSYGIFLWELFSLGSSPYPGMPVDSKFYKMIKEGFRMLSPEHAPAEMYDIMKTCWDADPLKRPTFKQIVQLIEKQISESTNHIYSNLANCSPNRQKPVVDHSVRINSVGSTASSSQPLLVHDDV

kinases (468) [18] = target: kinases (468) (Homo sapiens, UniProt P37023); settings: ACVRL1; 1000 nM
kinases (468) [19] = target: kinases (468) (Homo sapiens, UniProt Q96RR4); settings: CAMKK2; 1000 nM
kinases (468) [20] = target: kinases (468) (Homo sapiens, UniProt P52564); settings: MEK6 (MAP2K6); 1000 nM
kinases (468) [21] = target: kinases (468) (Homo sapiens, UniProt Q13976); settings: PRKG1; 1000 nM
kinases (468) [22] = target: kinases (468) (Homo sapiens, UniProt P00519, E255K); settings: ABL1(E255K)-phosphorylated; 1000 nM
Sequence of kinases (468) (Homo sapiens, UniProt P00519, E255K) (P00519 whole entry E255K): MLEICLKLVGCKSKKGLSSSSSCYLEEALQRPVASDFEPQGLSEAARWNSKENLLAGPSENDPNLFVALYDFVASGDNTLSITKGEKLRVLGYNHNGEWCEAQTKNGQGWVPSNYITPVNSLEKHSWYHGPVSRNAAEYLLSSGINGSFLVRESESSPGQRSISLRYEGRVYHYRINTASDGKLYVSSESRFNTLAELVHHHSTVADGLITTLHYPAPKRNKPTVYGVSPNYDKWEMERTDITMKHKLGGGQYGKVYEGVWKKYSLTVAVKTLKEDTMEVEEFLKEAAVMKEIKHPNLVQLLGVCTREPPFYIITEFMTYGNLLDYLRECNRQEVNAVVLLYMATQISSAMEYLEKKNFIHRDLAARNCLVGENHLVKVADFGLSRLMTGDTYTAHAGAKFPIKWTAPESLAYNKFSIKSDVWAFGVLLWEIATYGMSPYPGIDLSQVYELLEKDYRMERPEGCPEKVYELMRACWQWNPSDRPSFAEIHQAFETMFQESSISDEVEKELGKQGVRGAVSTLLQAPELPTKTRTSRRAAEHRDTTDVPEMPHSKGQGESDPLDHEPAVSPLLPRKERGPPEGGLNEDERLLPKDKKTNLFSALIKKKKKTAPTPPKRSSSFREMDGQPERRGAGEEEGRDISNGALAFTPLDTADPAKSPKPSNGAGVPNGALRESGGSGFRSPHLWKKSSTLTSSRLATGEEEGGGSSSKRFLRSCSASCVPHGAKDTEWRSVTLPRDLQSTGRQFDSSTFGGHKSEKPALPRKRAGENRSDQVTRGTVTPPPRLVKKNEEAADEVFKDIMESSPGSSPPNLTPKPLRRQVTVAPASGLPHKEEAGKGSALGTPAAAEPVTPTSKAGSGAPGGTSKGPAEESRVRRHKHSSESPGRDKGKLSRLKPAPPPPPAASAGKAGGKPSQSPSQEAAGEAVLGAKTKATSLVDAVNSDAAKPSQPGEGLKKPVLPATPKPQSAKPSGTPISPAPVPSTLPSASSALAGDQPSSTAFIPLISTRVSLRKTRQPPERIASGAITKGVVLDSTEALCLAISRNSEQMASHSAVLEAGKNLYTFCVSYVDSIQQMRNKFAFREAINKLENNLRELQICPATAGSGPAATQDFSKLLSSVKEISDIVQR

kinases (468) [23] = target: kinases (468) (Homo sapiens, UniProt Q9BYP7); settings: kinase WNK3 (Entrez WNK3); compound concentration 1000 nM
kinases (468) [24] = target: kinases (468) (Homo sapiens, UniProt P54762); settings: EPHB1; 1000 nM
kinases (468) [25] = target: kinases (468) (Homo sapiens, UniProt P11362); settings: FGFR1; 1000 nM
kinases (468) [26] = target: kinases (468) (Homo sapiens, UniProt Q9Y2H9); settings: MAST1; 1000 nM
kinases (468) [27] = target: kinases (468) (Homo sapiens, UniProt O94806); settings: PRKD3; 1000 nM
kinases (468) [28] = target: kinases (468) (Homo sapiens, UniProt Q9UF33); settings: EPHA6; 1000 nM
kinases (468) [29] = target: kinases (468) (Homo sapiens, UniProt Q12851); settings: MAP4K2; 1000 nM
Sequence of kinases (468) (Homo sapiens, UniProt Q12851) (Q12851 whole entry): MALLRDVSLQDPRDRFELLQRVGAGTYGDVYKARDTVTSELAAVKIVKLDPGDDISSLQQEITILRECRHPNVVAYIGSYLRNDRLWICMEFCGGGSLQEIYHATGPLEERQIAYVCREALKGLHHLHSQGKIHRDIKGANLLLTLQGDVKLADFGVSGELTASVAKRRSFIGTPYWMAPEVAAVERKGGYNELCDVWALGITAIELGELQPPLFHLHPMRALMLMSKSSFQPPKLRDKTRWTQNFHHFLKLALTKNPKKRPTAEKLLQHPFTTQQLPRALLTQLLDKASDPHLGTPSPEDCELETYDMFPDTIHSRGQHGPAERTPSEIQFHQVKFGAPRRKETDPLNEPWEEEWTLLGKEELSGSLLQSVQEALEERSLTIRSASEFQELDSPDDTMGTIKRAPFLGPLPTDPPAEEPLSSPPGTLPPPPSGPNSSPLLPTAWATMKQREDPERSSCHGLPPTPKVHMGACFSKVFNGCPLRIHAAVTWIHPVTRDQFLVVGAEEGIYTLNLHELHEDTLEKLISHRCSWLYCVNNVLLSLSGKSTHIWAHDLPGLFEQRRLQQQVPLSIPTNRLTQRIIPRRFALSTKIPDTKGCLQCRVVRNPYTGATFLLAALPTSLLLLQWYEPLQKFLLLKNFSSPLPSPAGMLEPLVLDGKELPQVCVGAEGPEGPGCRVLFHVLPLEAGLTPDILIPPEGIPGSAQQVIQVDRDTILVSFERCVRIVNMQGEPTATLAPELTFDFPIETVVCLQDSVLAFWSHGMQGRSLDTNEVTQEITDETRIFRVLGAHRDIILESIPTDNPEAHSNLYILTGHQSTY

kinases (468) [30] = target: kinases (468) (Homo sapiens, UniProt P49336); settings: CDK8; 1000 nM
kinases (468) [31] = target: kinases (468) (Homo sapiens, UniProt Q15759); settings: p38-beta (MAPK11); 1000 nM
kinases (468) [32] = target: kinases (468) (Homo sapiens, UniProt P07949); settings: RET; 1000 nM
kinases (468) [33] = target: kinases (468) (Homo sapiens, UniProt P49674); settings: CSNK1E; 1000 nM
Sequence of kinases (468) (Homo sapiens, UniProt P49674) (P49674 whole entry): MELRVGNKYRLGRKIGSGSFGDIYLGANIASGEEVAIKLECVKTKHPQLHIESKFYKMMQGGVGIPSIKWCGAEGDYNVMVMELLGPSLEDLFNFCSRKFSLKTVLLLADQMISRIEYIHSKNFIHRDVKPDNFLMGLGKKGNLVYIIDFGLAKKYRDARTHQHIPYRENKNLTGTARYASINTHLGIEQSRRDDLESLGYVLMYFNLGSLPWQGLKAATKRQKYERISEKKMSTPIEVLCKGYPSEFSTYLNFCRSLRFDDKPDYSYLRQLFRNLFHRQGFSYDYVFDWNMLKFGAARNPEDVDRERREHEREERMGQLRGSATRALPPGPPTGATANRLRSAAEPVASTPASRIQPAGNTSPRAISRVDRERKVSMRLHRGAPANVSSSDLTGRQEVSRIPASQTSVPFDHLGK

kinases (468) [34] = target: kinases (468) (Homo sapiens, UniProt Q96PN8); settings: kinase TSSK3 (Entrez TSSK3); compound concentration 1000 nM

`C[C@H]1C[C@@H](O)CN(c2ncc(Cl)c(Nc3ccc4c(c3)c3c(c(=O)n4C)OCC(F)(F)[C@H](C4CC4)N3)n2)C1` [CCT373566_9A] was tested, and the “Percent Control” value (kinases (468) [1]) was 100%, the “Percent Control” value (kinases (468) [2]) was 69% and the “Percent Control” value (kinases (468) [3]) was 98%. For the same compound, the “Percent Control” value (kinases (468) [4]) was 99%, the “Percent Control” value (kinases (468) [5]) was 100% and the “Percent Control” value (kinases (468) [6]) was 93%. For the same compound, the “Percent Control” value (kinases (468) [7]) was 98%, the “Percent Control” value (kinases (468) [8]) was 98% and the “Percent Control” value (kinases (468) [9]) was 41%. The “Percent Control” value (kinases (468) [10]) was 100%, the “Percent Control” value (kinases (468) [11]) was 90% and the “Percent Control” value (kinases (468) [12]) was 100%. For the same compound, the “Percent Control” value (kinases (468) [13]) was 95%, the “Percent Control” value (kinases (468) [14]) was 100% and the “Percent Control” value (kinases (468) [15]) was 100%. The “Percent Control” value (kinases (468) [16]) was 100%, the “Percent Control” value (kinases (468) [17]) was 87% and the “Percent Control” value (kinases (468) [18]) was 96%. The “Percent Control” value (kinases (468) [19]) was 88%, the “Percent Control” value (kinases (468) [20]) was 89% and the “Percent Control” value (kinases (468) [21]) was 96%. The “Percent Control” value (kinases (468) [22]) was 99%, the “Percent Control” value (kinases (468) [23]) was 96% and the “Percent Control” value (kinases (468) [24]) was 99%. The “Percent Control” value (kinases (468) [25]) was 100%, the “Percent Control” value (kinases (468) [26]) was 100% and the “Percent Control” value (kinases (468) [27]) was 75%. For the same compound, the “Percent Control” value (kinases (468) [28]) was 100%, the “Percent Control” value (kinases (468) [29]) was 99% and the “Percent Control” value (kinases (468) [30]) was 100%. For the same compound, the “Percent Control” value (kinases (468) [31]) was 100%, the “Percent Control” value (kinases (468) [32]) was 99% and the “Percent Control” value (kinases (468) [33]) was 90%. The “Percent Control” value (kinases (468) [34]) was 72%.
